Laboratory results: patent US20250353891A1 (MEDIMMUNE LIMITED, priority 2022, published 2025)
Where two headings read alike, the source gives them in different places. Starred links: 1 amine or outer side, 2 acyl side, 3 side chain; linkers in the order of their positions; H or OH if unused. Non-standard residues stand in square brackets, D forms with d. Residues, ends and D or L forms follow the SMILES beside them. Groups on a side chain read outwards from the residue. *: point of attachment. C20 diacid = O=C(O)CCCCCCCCCCCCCCCCCCC(=O)*; Dip = N[C@H](C(=O)O)C(c1ccccc1)c1ccccc1; γGlu = O=C(O)[C@H](CCC(=O)[*:2])N[*:1]; Stearoyl = CCCCCCCCCCCCCCCCCC(=O)*; αMeF = C[C@](N)(Cc1ccccc1)C(=O)O; PEG2 = NCCOCCOCCC(=O)O; AEEA = NCCOCCOCC(=O)O; Aib = CC(C)(N)C(=O)O

Assays:
[1] = molecular target: human GLP-1 receptor (hGLP-1R) (Homo sapiens, UniProt P43220); test: cAMP production (HTRF) in CHO cells expressing hGLP-1R; assay type: cell-based; set-up: expressed in transfected cells; conditions: for EC50: geometric mean, read-out: hGLP-1R EC50; for % Relative Potency Ratio: % GLP-1R activity relative to GLP-1 / % GlucR activity relative to glucagon
Sequence of human GLP-1 receptor (hGLP-1R) (P43220 24-463): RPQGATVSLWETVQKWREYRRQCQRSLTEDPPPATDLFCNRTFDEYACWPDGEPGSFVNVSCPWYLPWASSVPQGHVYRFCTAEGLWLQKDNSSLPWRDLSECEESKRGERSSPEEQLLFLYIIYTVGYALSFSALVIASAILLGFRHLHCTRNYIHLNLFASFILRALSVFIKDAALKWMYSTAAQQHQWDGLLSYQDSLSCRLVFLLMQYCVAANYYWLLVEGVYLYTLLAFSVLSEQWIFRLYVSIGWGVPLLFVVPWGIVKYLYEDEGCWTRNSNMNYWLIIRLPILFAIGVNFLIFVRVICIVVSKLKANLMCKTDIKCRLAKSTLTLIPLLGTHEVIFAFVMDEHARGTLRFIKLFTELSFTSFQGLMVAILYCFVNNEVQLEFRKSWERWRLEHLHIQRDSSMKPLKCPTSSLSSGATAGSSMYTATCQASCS
How it was run: (§1)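 Cells were resuspended in assay buffer at batch-optimized density, typically 1×10^5 cells/mL for hGLP-1R and 2×10^5 cells/mL for hGCGR. After 30 min incubation at room temperature with compound, cAMP was measured by two-step HTRF. EC50 values came from 4-parameter logistic fits of % Delta F.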

[2] = Proteolytic resistance to FasSSIF/Pancreatin; assay type: in vitro ADME; conditions: simulated intestinal fluid
Method: A fresh suspension of FasSSIF/P (Fasted-State Simulated Intestinal Fluid+USP Pancreatin®) was prepared according to that described by Galia, Nicolaides, Hörter, Löbenberg, Reppas and Dressman: Pharm. Res. 15 (1998) 698-705, and USP XL requirements. The resulting preparation was used immediately without storage.
Peptide for evaluation (1.0 mg) was dissolved in pre-warmed FasSSIF without Pancreatin® (200 μL). To this fresh FasSSIF/Pancreatin® (100 μL) was added to initiate potential proteolysis. Following momentary vortexing of the reaction tube the mixture was incubated at 37° C. in a thermostatic water bath for the duration of the experiment. 25 μL aliquot of the co-incubated peptide-enzyme mixture was periodically withdrawn (t=0, 5, 10 15 and 30 min) and quenched immediately by addition to a solution of 10% TFA in 1:1 water/acetonitrile (75 μL) to arrest proteolytic activity. Quenched samples were centrifuged (7800 RPM, 3 mins) to pellet solids and 10 μL aliquots of the supernatant solution were analyzed using analytical RP-HPLC as follows: Analytical RP-HPLC method: Agilent Polaris C8-A column (4.6×100 mm, 3 micron) eluted with a linear binary gradient of 10-90% MeCN (0.1% TFA v/v) in water (0.1% TFA v/v) over either 10 or 15 mins at 1.5 mL min^−1 at 40° C. with detection by UV absorption at 210 nm. Manual integration (AUC) allowed estimation of remaining intact peptide over the time course of the experiment.

[3] = molecular target: human glucagon receptor (hGCGR) (Homo sapiens, UniProt P47871); test: cAMP production (HTRF) in CHO cells expressing hGCGR; assay type: cell-based; set-up: expressed in transfected cells; conditions: geometric mean, read-out: hGluc-R EC50
Sequence of human glucagon receptor (hGCGR) (P47871 26-477): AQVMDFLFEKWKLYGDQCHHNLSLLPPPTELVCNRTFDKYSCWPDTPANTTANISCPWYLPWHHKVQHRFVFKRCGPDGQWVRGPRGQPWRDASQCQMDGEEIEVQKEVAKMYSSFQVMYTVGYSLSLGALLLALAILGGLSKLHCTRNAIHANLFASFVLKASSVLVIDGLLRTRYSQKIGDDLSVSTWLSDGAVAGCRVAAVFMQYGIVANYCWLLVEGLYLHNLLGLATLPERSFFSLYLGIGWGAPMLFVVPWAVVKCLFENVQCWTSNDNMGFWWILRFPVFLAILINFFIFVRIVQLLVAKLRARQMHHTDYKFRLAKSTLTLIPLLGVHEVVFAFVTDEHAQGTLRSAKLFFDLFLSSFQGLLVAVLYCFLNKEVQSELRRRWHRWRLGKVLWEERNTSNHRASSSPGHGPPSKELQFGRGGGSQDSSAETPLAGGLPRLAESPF
How it was run: as §1

[4] = Mouse acute food intake study; assay type: in vivo; conditions: male C57Bl/6 mice, s.c., dose 10 nmol/kg, cumulative food intake at 24 hr vs vehicle
How it was run: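 Single-housed male C57Bl/6 mice (8-9 weeks on arrival), chow-fed, acclimated and sham-dosed ≥2 times, were fasted 6-8 h, then given vehicle or peptide subcutaneously at 5 mL/kg 1-2 h before lights out. Food intake was recorded automatically over 48 h and analysed as cumulative intake.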

[5] = Table 6, peptides modified at position 17, cAMP in CHO hGLP-1R cells
[6] = Table 6, peptides modified at position 17, cAMP in CHO hGCGR cells

CCCCCCCCCCCCCCCCCC(=O)N[C@@H](CCC(=O)N[C@@H](CCC(=O)NCCOCCOCCC(=O)NCCOCCOCCC(=O)NCCCC[C@H](NC(=O)[C@H](CO)NC(=O)[C@H](CC(=O)O)NC(=O)[C@H](CC(C)C)NC(=O)[C@@H](NC(=O)[C@H](CCCCN)NC(=O)[C@H](CO)NC(=O)[C@@H](NC(=O)[C@H](CC(=O)O)NC(=O)[C@H](CO)NC(=O)[C@@H](NC(=O)[C@](C)(Cc1ccccc1)NC(=O)[C@H](CO)NC(=O)CNC(=O)[C@H](CCC(N)=O)NC(=O)[C@H](CO)NC(=O)[C@@H](N)Cc1c[nH]cn1)[C@@H](C)O)C(C)C)C(c1ccccc1)c1ccccc1)C(=O)N[C@@H](C)C(=O)N[C@@H](C)C(=O)N[C@@H](CCC(N)=O)C(=O)N[C@@H](CC(=O)O)C(=O)N[C@@](C)(Cc1ccccc1)C(=O)N[C@H](C(=O)N[C@@H](CCC(=O)O)C(=O)NC(C)(C)C(=O)N[C@@H](CC(C)C)C(=O)N[C@H](C(=O)N[C@@H](CO)C(=O)NCC(N)=O)[C@@H](C)CC)C(C)C)C(=O)O)C(=O)O [Peptide 48] (H-HSQGS[αMeF]TSDVSK[Dip]LDSK([PEG2-PEG2-γGlu-γGlu-Stearoyl])AAQD[αMeF]VE[Aib]LISG-NH2; N-terminus assumed)
EC50 [1, 5]: 0.0199 nM
% Relative Potency Ratio ([1]; Table 6): 4.3
remaining at 0.5 h, 3.3 mg/mL [2]: 94%
EC50 [3, 6]: 0.0432 nM

CCCCCCCCCCCCCCCCCC(=O)N[C@@H](CCC(=O)N[C@@H](CCC(=O)NCCOCCOCCC(=O)NCCOCCOCCC(=O)NCCCC[C@H](NC(=O)[C@H](CO)NC(=O)[C@H](CC(=O)O)NC(=O)[C@H](CC(C)C)NC(=O)[C@@H](NC(=O)[C@H](CCCCN)NC(=O)[C@H](CO)NC(=O)[C@@H](NC(=O)[C@H](CC(=O)O)NC(=O)[C@H](CO)NC(=O)[C@@H](NC(=O)[C@](C)(Cc1ccccc1)NC(=O)[C@H](CO)NC(=O)CNC(=O)[C@H](CCC(N)=O)NC(=O)[C@H](CO)NC(=O)[C@@H](N)Cc1c[nH]cn1)[C@@H](C)O)C(C)C)C(c1ccccc1)c1ccccc1)C(=O)N[C@@H](C)C(=O)N[C@@H](C)C(=O)N[C@@H](CCC(N)=O)C(=O)N[C@@H](CC(=O)O)C(=O)N[C@@](C)(Cc1ccccc1)C(=O)N[C@H](C(=O)N[C@@H](CCC(=O)O)C(=O)NC(C)(C)C(=O)N[C@@H](CC(C)C)C(=O)N[C@@H](CC(C)C)C(=O)N[C@@H](CC(N)=O)C(=O)N[C@H](C(N)=O)[C@@H](C)O)C(C)C)C(=O)O)C(=O)O [Peptide 51] (H-HSQGS[αMeF]TSDVSK[Dip]LDSK([PEG2-PEG2-γGlu-γGlu-Stearoyl])AAQD[αMeF]VE[Aib]LLNT-NH2; N-terminus assumed)
EC50 [1, 5]: 0.0181 nM
% Relative Potency Ratio ([1]; Table 6): 4.6
remaining at 0.5 h, 3.3 mg/mL [2]: 91%
EC50 [3, 6]: 0.0419 nM

CC[C@H](C)[C@H](NC(=O)C(C)(C)NC(=O)[C@H](CCCCNC(=O)COCCOCCNC(=O)COCCOCCNC(=O)CC[C@H](NC(=O)CC[C@H](NC(=O)CCCCCCCCCCCCCCCCCCC(=O)O)C(=O)O)C(=O)O)NC(=O)[C@@H](NC(=O)[C@](C)(Cc1ccccc1)NC(=O)[C@H](CC(=O)O)NC(=O)[C@H](CCC(N)=O)NC(=O)[C@H](C)NC(=O)[C@H](C)NC(=O)[C@H](CCCNC(=N)N)NC(=O)[C@H](CO)NC(=O)[C@H](CC(=O)O)NC(=O)[C@H](CC(C)C)NC(=O)[C@](C)(Cc1ccccc1)NC(=O)[C@H](CCCCN)NC(=O)[C@H](CO)NC(=O)[C@@H](NC(=O)[C@H](CC(=O)O)NC(=O)[C@H](CO)NC(=O)[C@@H](NC(=O)[C@](C)(Cc1ccccc1)NC(=O)[C@H](CO)NC(=O)CNC(=O)[C@H](Cc1c[nH]cn1)NC(=O)C(C)(C)NC(=O)[C@@H](N)Cc1c[nH]cn1)[C@@H](C)O)C(C)C)C(C)C)C(=O)N[C@@H](C)C(=O)N[C@@H](CC(N)=O)C(=O)N[C@H](C(N)=O)[C@@H](C)O [Peptide 375] (H-H[Aib]HGS[αMeF]TSDVSK[αMeF]LDSRAAQD[αMeF]VK([AEEA-AEEA-γGlu-γGlu-C20 diacid])[Aib]IANT-NH2; N-terminus assumed)
24 hr % Vehicle Food Intake [4]: 66.0%
% Relative Potency Ratio [1]: 1.4
EC50 ([1]; cAMP, CHO cells, 0.1% BSA): 0.225 nM
EC50 ([3]; cAMP, CHO cells, 0.1% BSA): 0.155 nM
